Measured values from patent publication US5208223A, “Phosphocholine derivative inhibitors of phospholipase A2” (American Cyanamid Company, priority 1992, dated 1993).
Where a name gives a salt, the structure may show the parent alone. Read-outs that look alike come from different tables or passages of the source.

Key:
Assay type in all cases: biochemical
[1] = target: T1, porcine pancreatic PLA2 (Sus scrofa, UniProt P00592); assay: HPLA2 assay: in vitro porcine pancreatic phospholipase A2, preincubation design, [s]=10 μm
T1 construct: purchased Sigma
T1 sequence (P00592 23-146): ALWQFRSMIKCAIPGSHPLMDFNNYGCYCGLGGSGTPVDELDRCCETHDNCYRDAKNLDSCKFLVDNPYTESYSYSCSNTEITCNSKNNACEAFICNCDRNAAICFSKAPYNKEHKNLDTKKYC
Experimental: (§1) Phospholipase A2 activity was measured by a radiochemical assay in which labeled synthetic phosphatidylcholine substrate is converted by porcine pancreatic PLA2 to free radiolabeled arachidonate and lyso PC. Radiolabeled arachidonate is extracted from the reaction mixture and separated from unreacted substrate by column chromatography or TLC. Radioactivity (cpm) in samples is quantitated by liquid scintillation counting. Specific details are as follows:
(§2) Labeled substrate(1-stearyl-2-^3 H-arachidonylphosphatidylcholine; Amersham, sp. act. 84 (uCi/mmole, 0.025 to 0.2 uCi/assay tube and unlabeled substrates (Avanti), in sufficient quantity to give 20,000 cpm to 50,000 cpm and 10 μM to 1,000 μM final concentration/assay tube are dried under a stream of nitrogen. The PLA2 and mPLA2 assays utilized a […] substrate concentration. The mHPLA2 and HPLA2 assays (vida infra) utilized a 10 μM substrate concentration and the SmPLA2 assay utilized a substrate concentration ranging from 100 to 1000 μm. The substrate is then redissolved in 0.1M tris-HCl buffer, pH 9.0 containing 10 mM CaCl2 and 10 mM Na taurocholate detergent. The mixture is sonicated in a Kontes Sonifier to yield a homogeneous dispersion. The "mixed" micellar substrate is clear. An aliquot is reserved for a cpm count (total substrate). The total reaction volume is 500 μL; siliconized glassware or plasticware is used throughout. Enzyme (Sigma, sp. act.>690 U/mg protein and preferably 900 U/mg protein) is diluted 1:750 or 1:1000 in 0.1M tris-HCl buffer, pH 9.0 (without Ca^++ and detergent). Enzyme dilution depends on substrate concentration and required enzyme concentration.
(§3) The substrate in buffer is kept on ice until the reaction is started. The reaction is started by adding 10 μL of diluted enzyme solution to 490 μL of micellar substrate solution. Samples are incubated in a 37° C. water bath for 15 minutes with gentle mixing. The reaction is terminated by the addition of 100 μL of 1M fresh trichloroacetic acid (TCA) solution and chilling the tubes on ice for 30 minutes.
(§4) Samples (600 μL) are extracted with 3 ml CHCl3 /MeOH (2:1) for thin layer chromatography or in hexane/ether (9:1) for column chromatography. The phases are separated by gentle centrifugation at 700 rpm×5'. The organic phase is recovered.
Labeled arachidonate extracted with CHCl3 /MeOH is separated on silica gel G TLC plates (Analtech). Twenty μL of a 2 mg/ml internal standard solution of arachidonic acid (Sigma) is combined with 2-3 ml of the organic phase. The entire mixture is dried under nitrogen and redissolved in 50 μL of CHCl3 /MeOH (2:1). A 20 μL sample is counted in 10 ml of Beckman Redi-solv HP and spotted on silica gel G plates. […] Plates are developed in a glass chamber for 1-11/2 hours, air dried, and the spots visualized in an iodine vapor chamber. Standards of phosphatidylcholine, lyso PC, and arachidonic acid (Sigma) are made as 2 mg/ml stocks in CHCl3 /MeOH (2:1) and spotted on plates. Spots corresponding to arachidonate and phospholipid are scraped and counted in 10 ml Beckman Redi-Solv HP scintillation fluid.
(§5) Samples are extracted with hexane/ether and the upper organic phase recovered. An aliquot is applied to a Silicar CC4 (Malincrodt) column. Columns are prepared using 1 ml of a 1:1 slurry of silicar CC4 in hexane/ether in a Pasteur pipet (approx. 2 cm height). Columns are rinsed with 500 μL of hexane/ether before adding the sample (300-600 μL) to the column. Columns are eluted with a total of 6 ml of hexane/ether. The 6 ml sample is counted in 10 ml of Beckman Redi-Solv HP scintillation fluid.
or the phospholipase A2 assay, compounds are prepared as 1 mg/ml stock solutions in MeOH and diluted appropriately in PBS.

[2] = target: T1, porcine pancreatic PLA2; assay: MPLA2 assay: in vitro porcine pancreatic phospholipase A2, mixed micelle design, substrate 2 nM; conditions: for inhibition at 25 µg/mL: dose 25 μ/ml
Outline: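 Radiochemical PLA2 assay, mixed-micelle design: compound dried under N2 with 1-stearyl-2-[3H]-arachidonyl-PC substrate (2 nM) in 0.1M Tris-HCl pH 9.0, 10 mM CaCl2, 10 mM Na taurocholate. Reaction started with enzyme, 15 min at 37° C, stopped with TCA; released [3H]-arachidonate extracted, separated by TLC or column, counted by scintillation.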

[3] = target: T1, porcine pancreatic PLA2; assay: MHPLA2 assay: in vitro porcine pancreatic phospholipase A2, mixed micelle design, [s]=10 μm
Outline: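 Compounds dried with 10 μM 1-stearyl-2-[3H]-arachidonyl-PC substrate in mixed micelles (0.1M tris-HCl pH 9.0, 10 mM CaCl2, 10 mM Na taurocholate). Reaction started by adding enzyme and run 15 min at 37°C, then stopped with TCA. Released [3H]-arachidonate separated by TLC or column and counted by scintillation.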

[4] = target: T1, porcine pancreatic PLA2; assay: PLA2 assay: in vitro porcine pancreatic phospholipase A2, preincubation of drug+enzyme, substrate 2 nM; conditions: preincubation, subs. con. 2; for inhibition at 25 µg/mL: dose 25 μ/ml; for IC50: read-out: IC50 (converted)
Outline: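 Porcine pancreatic PLA2 acting on 2 nM radiolabeled arachidonyl-phosphatidylcholine in mixed micelles (0.1 M Tris-HCl pH 9.0, 10 mM CaCl2, 10 mM Na taurocholate), 15 min at 37 °C with preincubation of drug and enzyme. Stopped with TCA; released 3H-arachidonate extracted, separated by TLC or column, counted by scintillation.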

[5] = target: T1, porcine pancreatic PLA2; assay: SMPLA2 assay: in vitro porcine pancreatic phospholipase A2, mixed micelle design, substrate 100 to 1000 μm
Experimental: as §1, §2, §3, §4
Labeled arachidonate extracted with CHCl3 /MeOH is separated on silica gel G TLC plates (Analtech). Twenty μL of a 2 mg/ml internal standard solution of arachidonic acid (Sigma) is combined with 2-3 ml of the organic phase. The entire mixture is dried under nitrogen and redissolved in 50 μL of CHCl3 /MeOH (2:1). A 20 μL sample is counted in 10 ml of Beckman Redi-solv HP and spotted on silica gel G plates. The solvent system used to develop the plate is CHCl3 /MeOH/13.5N NH3 /H2 O (70:30:4:1). Plates are developed in a glass chamber for 1-11/2 hours, air dried, and the spots visualized in an iodine vapor chamber. Standards of phosphatidylcholine, lyso PC, and arachidonic acid (Sigma) are made as 2 mg/ml stocks in CHCl3 /MeOH (2:1) and spotted on plates. Spots corresponding to arachidonate and phospholipid are scraped and counted in 10 ml Beckman Redi-Solv HP scintillation fluid.
as §5
or the phospholipase A2 assay, compounds are prepared as 1 mg/ml stock solutions in MeOH and diluted appropriately in PBS. […]

[6] = dose 20 μ/ml, subs. con. 10, read-out: % Inh.
[7] = dose 50 μ/ml, subs. con. 10, read-out: % Inh.
[8] = dose 25 μ/ml, subs. con. 10, read-out: % Inh.
[9] = dose 10 μ/ml, subs. con. 10, read-out: % Inh. Avg.
[10] = dose 20 μ/ml, subs. con. 10, read-out: % Inh. Avg.
[11] = dose 50 μ/ml, subs. con. 10, read-out: % Inh. Avg.
[12] = dose 10 μ/ml, read-out: % Inh. Avg.
[13] = dose 10 μ/ml, subs. con. 10, read-out: % Inh.

## CCCCCCCCCCCCCCCCOCC(COP(=O)([O-])OCC[N+](C)(C)C)OP(=O)(O)OCCCCCCCCCCCCCCCC (centres unmarked) [3,5,8,10-Tetraoxa-4,9-diphosphahexacosan-1-aminium, 7-[(hexadecyloxy)methyl]-4,9-dihydroxy-N,N,N-trimethyl-, hydroxide, 4-inner salt), 4,9-dioxide]
[1]; [6]
  inhibition at 20 µg/mL: 0%
[1]; [7]
  inhibition at 50 µg/mL: 0%

## CCCCCCCCCCCCCCCCOC[C@H](COP(=O)([O-])OCC[N+](C)(C)C)OP(=O)(OC)OCCCCCCCCCCCCCCCC (single isomer, unassigned)
[2]; subs. con. 2, read-out: % Inh.
  inhibition at 25 µg/mL: 93%
[3]; [8]
  inhibition at 25 µg/mL: 7%
[1]; [9]
  inhibition at 10 µg/mL: 17%
[1]; [10]
  inhibition at 20 µg/mL: 21%
[1]; [11]
  inhibition at 50 µg/mL: 30%
[4]; read-out: % Inh.
  inhibition at 25 µg/mL: 93%
[4]
  IC50: 2500 nM

## CCCCCCCCCCCCCCCCOC[C@@H](COP(=O)([O-])OCC[N+](C)(C)C)OP(=O)(OC)OCCCCCCCCCCCCCCCC (single isomer, unassigned)
[1]; [9]
  inhibition at 10 µg/mL: 22%
[1]; [10]
  inhibition at 20 µg/mL: 18%
[1]; [11]
  inhibition at 50 µg/mL: 23%
[4]; [12]
  inhibition at 10 µg/mL: 29%
[4]; dose 20 μ/ml, read-out: % Inh. Avg.
  inhibition at 20 µg/mL: 26%

## CCCCCCCCCCCCCCCCOCC(COP(=O)([O-])OCC[N+](C)(C)C)OP(=O)(O)OCCCCC (single isomer, unassigned; less polar) [3,5,8,10-Tetraoxa-4,9-diphosphapentadecan-1-aminium, 7-[(hexadecyloxy)methyl]-4,9-dihydroxy-N,N,N-trimethyl-, hydroxide, 4-(inner salt), 4,9-dioxide, less polar isomer]
[2]; subs. con. 2, read-out: % Inh.
  inhibition at 25 µg/mL: 100%
[3]; dose 10 μ/ml, subs. con. 10
  % Inh.: STIM
[3]; dose 25 μ/ml, subs. con. 10
  % Inh.: STIM
[5]; dose 10 μ/ml, subs. con. 100
  % Inh.: STIM
[5]; dose 10 μ/ml, subs. con. 500
  inhibition at 10 µg/mL: 7%
[5]; dose 10 μ/ml, subs. con. 1000
  inhibition at 10 µg/mL: 22%
[5]; dose 25 μ/ml, subs. con. 100
  % Inh.: STIM
[5]; dose 25 μ/ml, subs. con. 500
  inhibition at 25 µg/mL: 29%
[5]; dose 25 μ/ml, subs. con. 1000
  inhibition at 25 µg/mL: 3%
[5]; dose 50 μ/ml, subs. con. 100
  % Inh.: STIM
[5]; dose 50 μ/ml, subs. con. 500
  % Inh.: STIM
[5]; dose 50 μ/ml, subs. con. 1000
  % Inh.: STIM
[4]; dose 10 μ/ml, read-out: % Inh.
  inhibition at 10 µg/mL: 21%
[4]; dose 20 μ/ml, read-out: % Inh.
  inhibition at 20 µg/mL: 41%

## CCCCCCCCCCCCCCCCOC[C@@H](COP(=O)([O-])OCC[N+](C)(C)C)OP(=O)(OC)OCCCCCCCCCCCCCCCC (single isomer, unassigned) [3,5,8,10-Tetraoxa-4,9-diphosphahexacosan-1-aminium, 7-[(hexa]
[3]; dose 25 μ/ml, subs. con. 10
  % Inh.: 9%
[1]; dose 10 μ/ml, subs. con. 10
  % Inh. Avg.: 18%
[1]; dose 20 μ/ml, subs. con. 10
  % Inh. Avg.: 12%
[1]; dose 50 μ/ml, subs. con. 10
  % Inh. Avg.: 25%
[4]; dose 10 μ/ml
  % Inh. Avg.: 25%
[4]; dose 20 μ/ml
  % Inh. Avg.: 39%

## CCCCCCCCCCCCCCCCOCC(COP(=O)([O-])OCC[N+](C)(C)C)OP(=O)(O)OCCCCCCCCCCCCCCCC (single isomer, unassigned; more polar) [3,5,8,10-Tetraoxa-4,9-diphosphahexacosan-1-aminium, 7-[(hexadecyloxy)methyl]-4,9-dihydroxy-N,N,N-trimethylhydroxide, 4-(inner salt), 4,9-dioxide, more polar isomer]
[3]; [8]
  inhibition at 25 µg/mL: 1%
[1]; [9]
  inhibition at 10 µg/mL: 18%
[1]; [10]
  inhibition at 20 µg/mL: 22%
[1]; [11]
  inhibition at 50 µg/mL: 32%
[4]; [12]
  inhibition at 10 µg/mL: 27%
[4]; read-out: % Inh.
  inhibition at 25 µg/mL: 91%
[4]
  IC50: 3180 nM

## CCCCCCCCCCCCCCCCOCC(COP(=O)([O-])OCC[N+](C)(C)C)OP(=O)(O)OCCCCCCCCCCCCCCCC (centres unmarked) [3,5,8,10-Tetraoxa-4,9-diphosphahexacosan-1-aminium, 7-[(hexa] [3,5,8,10-Tetraoxa-4,9-diphosphahexacosan-1-aminium, 7-[(hexadecyloxy)methyl]-4,9-dihydroxy-N,N,N-trimethyl-hydroxide, 4-(inner salt), 4,9-dioxide]
[1]; dose 10 μ/ml, subs. con. 10
  % Inh.: STIM

## CCCCCCCCCCCCCCCCOCC(COP(=O)([O-])OCC[N+](C)(C)C)C[S+]([O-])CCCCCCCCCCCCCCCC (centres unmarked) [7-[(Hexadecylsulfinyl)methyl]-4-hydroxy-N,N,N-trimethyl-3,5,9-trioxa-4-phosphapentacosan-1-aminium, hydroxide, inner salt, 4-oxide]
[2]; dose 10 μ/ml, subs. con. 2, read-out: % Inh.
  inhibition at 10 µg/mL: 71%
[2]; dose 20 μ/ml, subs. con. 2, read-out: % Inh.
  inhibition at 20 µg/mL: 84%
[2]; subs. con. 2, read-out: % Inh.
  inhibition at 25 µg/mL: 98%
[2]; subs. con. 2
  IC50: 3860 nM
[3]; [13]
  inhibition at 10 µg/mL: 3%
[3]; dose 20 μ/ml, subs. con. 10
  inhibition at 20 µg/mL: 22%
[3]; [8]
  inhibition at 25 µg/mL: 68%
[1]; [13]
  inhibition at 10 µg/mL: 27%
[1]; [9]
  inhibition at 10 µg/mL: 22%
[1]; [6]
  inhibition at 20 µg/mL: 33%
[1]; [10]
  inhibition at 20 µg/mL: 33%
[1]; [7]
  inhibition at 50 µg/mL: 36%
[1]; [11]
  inhibition at 50 µg/mL: 42%
[4]; dose 10 μ/ml
  % Inh.: 88%
[4]; [12]
  inhibition at 10 µg/mL: 66%
[4]; dose 20 μ/ml, read-out: % Inh.
  inhibition at 20 µg/mL: 93%
[4]
  IC50: 1860 nM
